What was measured:
rat hypothalamic tissue = details: injected intravenously or included in the in vitro incubation of rat hypothalamic tissue; cited from earlier work
Na^+ pump = molecular target: T1, Na^+ pump (Homo sapiens, UniProt P05023); assay: Inhibition of Na+ pump activity (active Rb+ uptake) in human erythrocytes; assay type: cell-based; details: 1 mM, standard
T1 construct: measuring active ^86Rb^+(K^+ analogue) transport into human erythrocytes; endogenous in cells; host or cells: human erythrocytes
Protocol: After purifying the conditioned medium by reverse-phase column chromatography (Sep-Pak, Waters), the resulting sample was assayed using the ^86Rb uptake assay to determine a change in inhibition as previously described in Carilli et al., J. Biol. Chem., 260:1027-1031 (1985).
PC12 cells are studied for the presence of the genes of interest, then the release of inhibitor from these cells is confirmed using the method of Komiyama (Komiyama et al., J. Hypertens., 19:229-236 (2001)). Collected supernatants are acidified to dissociate OLC from putative carrier proteins, and purified using Sep-Pak C18 cartridges eluted with acetonitrile.

[1] = system: vascular rings from rat pulmonary artery and aorta; details: in vitro; cited from earlier work
cultured rat myocytes = details: cited from earlier work
PC12 cells = details: added to the culture media of PC12 cells; cited from earlier work

## CC[C@H](C)[C@@H]1NC(=O)[C@H](CCCNC(=N)N)NC(=O)[C@H](CC(=O)O)NC(=O)[C@H](CCSC)NC(=O)[C@H](CCCNC(=N)N)NC(=O)CNC(=O)CNC(=O)[C@H](Cc2ccccc2)NC(=O)[C@@H](NC(=O)[C@H](CO)NC(=O)[C@H](CO)NC(=O)[C@H](CCCNC(=N)N)NC(=O)[C@H](CCCNC(=N)N)NC(=O)[C@H](CC(C)C)NC(=O)[C@@H](N)CO)CSSC[C@@H](C(=O)N[C@@H](CC(N)=O)C(=O)N[C@@H](CO)C(=O)N[C@@H](Cc2ccccc2)C(=O)N[C@@H](CCCNC(=N)N)C(=O)N[C@@H](Cc2ccc(O)cc2)C(=O)O)NC(=O)CNC(=O)[C@H](CC(C)C)NC(=O)CNC(=O)[C@H](CO)NC(=O)[C@H](CCC(N)=O)NC(=O)[C@H](C)NC(=O)CNC1=O [atrial natriuretic peptide]
Rat hypothalamic tissue
  release of the Na+,K+-ATPase inhibitor: decreased the release

## C[C@@H]1O[C@@H](O[C@H]2C[C@@H](O)[C@]3(CO)[C@H]4[C@H](O)C[C@]5(C)[C@@H](C6=CC(=O)OC6)CC[C@]5(O)[C@@H]4CC[C@]3(O)C2)[C@H](O)[C@H](O)[C@H]1O [ouabain]
Na^+ pump
  inhibition of active Na+ transport: Complete inhibition
[1]
  effect on isolated vascular rings: unaffected by Oua except at toxic concentrations
Cultured rat myocytes
  toxicity at the same intracellular Ca++ concentration: toxic

## CC(=O)[C@H]1CC[C@H]2[C@@H]3CCC4=CC(=O)CC[C@]4(C)[C@H]3CC[C@]12C [progesterone]
PC12 cells
  amount of OLC release into culture supernatants: augmented in a dose-dependent manner
